From patent US20250129135A1, “Multi-Agonist and Use Thereof” (priority 2021, published 2025) come the findings set out here.

In one assay the target is Human GLP-1R (Homo sapiens, UniProt P43220). Kind of assay: cAMP (HTRF) activity in HEK-293 cells stably overexpressing human GLP-1 receptor. The assay is classed as cell-based. The conditions noted are these: for Human GLP-1R Rel. A (Relative Activity): EC50 of human GLP-1 (7-37) / EC50 of compound. On the set-up: expressed in transfected cells; host or cells: HEK-293. In a few lines:
(§1)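 Cells resuspended in HBSS are incubated with compound for 60 min at room temperature, then with HTRF cAMP detection reagent for a further 60 min. Concentration-response fits give agonist EC50 values in nM.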
Background: In TR-FRET formats the signal depends on donor and acceptor labels being close together.

For another assay, the target named is T1, Human GCG R (Homo sapiens, UniProt P47871).
T1 construct: expressed in transfected cells; host or cells: HEK-293
The experiment in a line: cAMP (HTRF) activity in HEK-293 cells stably overexpressing human GCG receptor. The format is cell-based. As to conditions: EC50 of human GCG / EC50 of compound. In a few lines: as §1

For another assay, the system named is RIN-m5F cells. The format is cell-based, rat. As to conditions: for Rel. A (Relative Activity) on RIN-m5F: relative to GLP-1(7-37). In a few lines:
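After 60 min room-temperature exposure of HBSS-suspended RIN-m5F cells to compound and another 60 min with detection reagent, cellular cAMP level was determined.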

The test system of a further assay is 3T3-L1 adipocytes. The conditions noted are these: for Rel. A (Relative Activity) on 3T3-L1 adipocyte: relative to GIP. In a few lines:
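Compound-induced cAMP was measured in mature 3T3-L1 adipocytes after 60 min room-temperature exposure to a 10-concentration, 3-fold dilution series, followed by 60 min with kit detection reagent and curve fitting. Differentiation used IBMX/dexamethasone/insulin (5 days), insulin with 10 uM rosiglitazone (3 days), then 2–3 days in 10% FBS.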

The next assay has as its target T2, Human GIP R (Homo sapiens, UniProt P48546).
T2 construct: expressed in transfected cells; host or cells: CHO
T2 sequence (P48546 22-466): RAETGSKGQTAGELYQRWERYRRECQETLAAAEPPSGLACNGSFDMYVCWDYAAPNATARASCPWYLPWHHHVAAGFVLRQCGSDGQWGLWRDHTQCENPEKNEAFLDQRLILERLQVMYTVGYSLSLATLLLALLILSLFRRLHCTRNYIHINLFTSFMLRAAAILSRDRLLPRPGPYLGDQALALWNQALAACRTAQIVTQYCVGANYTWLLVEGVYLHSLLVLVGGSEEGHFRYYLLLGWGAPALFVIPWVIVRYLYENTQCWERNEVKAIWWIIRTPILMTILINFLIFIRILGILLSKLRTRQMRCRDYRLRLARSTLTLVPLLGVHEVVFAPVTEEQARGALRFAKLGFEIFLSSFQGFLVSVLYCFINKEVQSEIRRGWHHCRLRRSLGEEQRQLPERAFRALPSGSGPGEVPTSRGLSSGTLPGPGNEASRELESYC
Kind of assay: cAMP (HTRF) activity in CHO cells stably overexpressing GIP receptor. As to conditions: for Human GIP R Rel. A (Relative Activity): EC50 of human GIP / EC50 of compound; for EC50: stable transfected cell cAMP activity, at least 3 independent tests. The format is cell-based. In a few lines: as §1

In assay [1] the test system is human primary liver cells. The assay is classed as cell-based. As to conditions: for Rel. A (Relative Activity) on human primary liver cells: relative to GCG. In a few lines: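 cAMP readout after 60 min with detection reagent, following 60 min room-temperature compound incubation. Cells were primary human liver cells thawed at 37° C and resuspended in HBSS.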
Another assay has as its system C57 BL/6J DIO mice. The experiment in a line: In vivo pharmacodynamics in high-fat diet induced obesity (DIO) mice. The conditions noted are these: Table 9-1; 3 nmol/kg; Day 15; Mean±SEM. The arrangement: species or system mouse. The source says:
High-fat diet induced obesity (DIO) mice have characteristics such as obesity, elevated blood sugar, insulin resistance, and lipid abnormalities, all of which are very significant metabolic syndromes similar to a human body. The effects of the compounds of the present application on body weight, food intake, blood sugar, and lipids in C57 BL/6J DIO mice were studied.
Obesity was induced in mice by feeding with a high-fat diet (60 kcal % of calories from fat). […] After grouping, one animal was raised in each cage for one week, during which each of the animals was injected subcutaneously (S.C.) with a solvent (1×PBS, 5 ml/kg) to pre-adapt the experimental operation process.
After the preparation of animals, vehicle control or compounds were administered to groups of animals by subcutaneous injection, in which the compounds were dissolved in 1×PBS, the dosage was 5 ml/kg, and the administration operation was started at 9:00 am and conducted once every three days (Q3D) for 15 days. Throughout the entire experimental study, animal weight and food intake were measured daily before administration, and compared with initial weight and food intake of the same animal before administration to calculate a percentage change in animal weight (%) and cumulative food intake, so as to evaluate the impact of compounds on changes in body weight and food intake.
At the end point of the experiment (Day 15), the body weight of the mice was measured, and then fasting blood glucose was measured by taking blood from the tail tip of broken tail without anesthesia. After the blood collection, the animals were anesthetized with CO2 and euthanized. Then, blood was taken from the heart and plasma was separated by centrifugation. The plasma was used to measure total cholesterol (TC), low-density lipoprotein cholesterol (LDL-C), triglycerides (TG), and blood insulin content. The liver was separated for homogenization, and then centrifuged to obtain the supernatant for determining triglyceride content in the liver.
All results were expressed in Mean±SEM, and the results were analyzed by one-way ANOVA using GraphPad Prism 5 software, followed by Dunnett's post hoc test compared to the Vehicle control group. The difference at the p<0.05 level was considered statistically significant.

Starred links: 1 amine or outer side, 2 acyl side, 3 side chain; linkers in the order of their positions; H or OH if unused. Non-standard residues stand in square brackets, D forms with d. Residues, ends and D or L forms follow the SMILES beside them. Groups on a side chain read outwards from the residue. *: point of attachment. C20 diacid = O=C(O)CCCCCCCCCCCCCCCCCCC(=O)*; αMePhe(2-F) = C[C@](N)(Cc1ccccc1F)C(=O)O; γGlu = O=C(O)[C@H](CCC(=O)[*:2])N[*:1]; αMeF = C[C@](N)(Cc1ccccc1)C(=O)O; AEEA = NCCOCCOCC(=O)O; Ac3c = NC1(C(=O)O)CC1; Aib = CC(C)(N)C(=O)O

Sequence of Human GLP-1R (P43220 24-463): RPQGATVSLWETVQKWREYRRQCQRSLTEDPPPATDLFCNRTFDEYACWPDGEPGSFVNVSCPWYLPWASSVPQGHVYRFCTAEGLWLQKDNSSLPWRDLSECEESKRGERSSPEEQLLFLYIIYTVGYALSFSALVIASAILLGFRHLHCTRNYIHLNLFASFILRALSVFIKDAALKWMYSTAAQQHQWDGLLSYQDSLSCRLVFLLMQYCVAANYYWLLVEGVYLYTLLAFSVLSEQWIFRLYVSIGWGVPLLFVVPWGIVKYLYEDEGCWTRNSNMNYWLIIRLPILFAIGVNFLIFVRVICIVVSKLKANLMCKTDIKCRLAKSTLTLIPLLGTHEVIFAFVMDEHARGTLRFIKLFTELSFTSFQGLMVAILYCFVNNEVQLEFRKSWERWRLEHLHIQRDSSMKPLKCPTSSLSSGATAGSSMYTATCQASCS
T1 sequence (P47871 26-477): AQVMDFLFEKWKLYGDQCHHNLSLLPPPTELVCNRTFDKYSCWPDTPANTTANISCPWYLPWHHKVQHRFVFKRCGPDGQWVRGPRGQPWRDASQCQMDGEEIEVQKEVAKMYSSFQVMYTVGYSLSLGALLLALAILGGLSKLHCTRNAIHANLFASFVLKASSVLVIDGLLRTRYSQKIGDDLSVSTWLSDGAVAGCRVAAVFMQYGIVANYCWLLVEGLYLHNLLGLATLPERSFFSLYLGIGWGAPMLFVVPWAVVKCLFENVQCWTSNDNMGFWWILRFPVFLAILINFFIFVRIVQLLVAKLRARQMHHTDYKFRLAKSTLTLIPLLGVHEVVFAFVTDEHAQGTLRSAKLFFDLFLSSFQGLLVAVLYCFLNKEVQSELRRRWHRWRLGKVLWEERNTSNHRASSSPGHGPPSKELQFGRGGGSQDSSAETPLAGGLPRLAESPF

The term EC50 denotes the concentration needed to bring the measured effect to its halfway point. High values mean a less potent agent, low ones a more potent agent. As to `CC[C@H](C)[C@H](NC(=O)[C@H](Cc1ccccc1)NC(=O)[C@H](C)NC(=O)C(C)(C)NC(=O)[C@H](CCC(N)=O)NC(=O)[C@H](C)NC(=O)[C@H](CCCCNC(=O)COCCOCCNC(=O)COCCOCCNC(=O)CC[C@H](NC(=O)CCCCCCCCCCCCCCCCCCC(=O)O)C(=O)O)NC(=O)[C@H](CCCCN)NC(=O)[C@H](CC(=O)O)NC(=O)[C@H](CC(C)C)NC(=O)[C@H](Cc1ccccc1)NC(=O)[C@@H](NC(=O)[C@H](CO)NC(=O)[C@H](Cc1ccc(O)cc1)NC(=O)[C@H](CC(=O)O)NC(=O)[C@H](CO)NC(=O)[C@@H](NC(=O)[C@](C)(Cc1ccccc1F)NC(=O)[C@@H](NC(=O)CNC(=O)[C@H](CCC(N)=O)NC(=O)C(C)(C)NC(=O)[C@@H](N)Cc1ccc(O)cc1)[C@@H](C)O)[C@@H](C)O)[C@@H](C)CC)C(=O)N[C@@H](CCC(=O)O)C(=O)N[C@@H](Cc1ccccc1)C(=O)N[C@@H](CC(C)C)C(=O)N[C@@H](CC(C)C)C(=O)N[C@@H](CCC(=O)O)C(=O)N[C@@H](CO)C(=O)N[C@@H](Cc1c[nH]cn1)C(=O)N1CCC[C@H]1C(=O)N[C@@H](CO)C(=O)N[C@@H](CO)C(=O)NCC(=O)N[C@@H](C)C(=O)N1CCC[C@H]1C(=O)N1CCC[C@H]1C(=O)NC1(C(=O)N[C@@H](CO)C(N)=O)CC1` [Compound 10] (H-Y[Aib]QGT[αMePhe(2-F)]TSDYSIFLDKK([AEEA-AEEA-γGlu-C20 diacid])AQ[Aib]AFIEFLLESHPSSGAPP[Ac3c]S-NH2), the “Human GLP-1R Rel. A (Relative Activity)” value on Human GLP-1R is given as 93.62%. The “Human GCG R Rel. A (Relative Activity)” value at Human GCG R came out at 75.00%. In the assay with RIN-m5F cells, the concentration giving a half-maximal response (EC50) turned out to be 0.274 nM and the “Rel. A (Relative Activity) on RIN-m5F” value is given as 376.64%. Besides, in the assay on 3T3-L1 adipocytes, the EC50 was found to be 6.16 nM and the “Rel. A (Relative Activity) on 3T3-L1 adipocyte” value was 61.76%. Besides, at Human GIP R, the “Human GIP R Rel. A (Relative Activity)” value came to 861.90% and the EC50 stood at 0.021 nM. Moreover, in assay [1], it took 5.19 nM to reach a half-maximal effect (EC50) and the “Rel. A (Relative Activity) on human primary liver cells” value was 75.00%. Besides, the “Liver TG” value in the assay with C57 BL/6J DIO mice was determined as 81.6 ± 8.50 mg.

In the case of `CC[C@H](C)[C@H](NC(=O)[C@H](Cc1ccccc1)NC(=O)[C@H](C)NC(=O)C(C)(C)NC(=O)[C@H](CCC(N)=O)NC(=O)[C@H](C)NC(=O)[C@H](CCCCNC(=O)COCCOCCNC(=O)COCCOCCNC(=O)CC[C@H](NC(=O)CCCCCCCCCCCCCCCCCCC(=O)O)C(=O)O)NC(=O)[C@H](CCCCN)NC(=O)[C@H](CC(=O)O)NC(=O)[C@H](CC(C)C)NC(=O)[C@H](CC(C)C)NC(=O)[C@@H](NC(=O)[C@H](CO)NC(=O)[C@H](Cc1ccc(O)cc1)NC(=O)[C@H](CC(=O)O)NC(=O)[C@H](CO)NC(=O)[C@@H](NC(=O)[C@](C)(Cc1ccccc1)NC(=O)[C@@H](NC(=O)CNC(=O)[C@H](CCC(N)=O)NC(=O)C(C)(C)NC(=O)[C@@H](N)Cc1ccc(O)cc1)[C@@H](C)O)[C@@H](C)O)[C@@H](C)CC)C(=O)N[C@@H](CCC(=O)O)C(=O)N[C@@H](Cc1ccccc1)C(=O)N[C@@H](CC(C)C)C(=O)N[C@@H](CC(C)C)C(=O)N[C@@H](CCC(=O)O)C(=O)N[C@@H](CO)C(=O)N[C@@H](Cc1c[nH]cn1)C(=O)N1CCC[C@H]1C(=O)N[C@@H](CO)C(=O)N[C@@H](CO)C(=O)NC(C)(C)C(=O)N[C@@H](Cc1c[nH]cn1)C(=O)N1CCC[C@H]1C(=O)N1CCC[C@H]1C(=O)NC1(C(=O)N[C@@H](CO)C(N)=O)CC1` [Compound 42] (H-Y[Aib]QGT[αMeF]TSDYSILLDKK([AEEA-AEEA-γGlu-C20 diacid])AQ[Aib]AFIEFLLESHPSS[Aib]HPP[Ac3c]S-NH2; N-terminus assumed), the “Human GLP-1R Rel. A (Relative Activity)” value on Human GLP-1R is 488.89%. Besides, the EC50 on Human GLP-1R (stable transfected cell cAMP activity, at least 3 independent tests) was determined as 0.009 nM. The “Human GCG R Rel. A (Relative Activity)” value at Human GCG R is 11.52%. Further, in the assay on RIN-m5F cells, the midpoint of the response, the EC50, lay at 0.359 nM and the “Rel. A (Relative Activity) on RIN-m5F” value turned out to be 287.47%. In addition, in the assay with 3T3-L1 adipocytes, the EC50 came out at 2.73 nM and the “Rel. A (Relative Activity) on 3T3-L1 adipocyte” value came out at 139.17%. In addition, the “Human GIP R Rel. A (Relative Activity)” value at Human GIP R was found to be 258.57%. Besides, in assay [1], the EC50 turned out to be 1.36 nM and the “Rel. A (Relative Activity) on human primary liver cells” value is given as 285.26%.

Turning to `CC[C@H](C)[C@H](NC(=O)[C@H](Cc1ccccc1)NC(=O)[C@H](C)NC(=O)C(C)(C)NC(=O)[C@H](CCC(N)=O)NC(=O)[C@H](C)NC(=O)[C@H](CCCCNC(=O)COCCOCCNC(=O)COCCOCCNC(=O)CC[C@H](NC(=O)CCCCCCCCCCCCCCCCCCC(=O)O)C(=O)O)NC(=O)[C@H](CCCCN)NC(=O)[C@H](CC(=O)O)NC(=O)[C@H](CC(C)C)NC(=O)[C@](C)(CC(C)C)NC(=O)[C@@H](NC(=O)[C@H](CO)NC(=O)[C@H](Cc1ccc(O)cc1)NC(=O)[C@H](CC(=O)O)NC(=O)[C@H](CO)NC(=O)[C@@H](NC(=O)[C@](C)(Cc1ccccc1F)NC(=O)[C@@H](NC(=O)CNC(=O)[C@H](CCC(N)=O)NC(=O)C(C)(C)NC(=O)[C@@H](N)Cc1ccc(O)cc1)[C@@H](C)O)[C@@H](C)O)[C@@H](C)CC)C(=O)N[C@@H](CCC(=O)O)C(=O)N[C@@H](Cc1ccccc1)C(=O)N[C@@H](CC(C)C)C(=O)N[C@@H](CC(C)C)C(=O)N[C@@H](CCC(=O)O)C(=O)NCC(=O)N[C@@H](CCCNC(=N)N)C(=O)N1CCC[C@H]1C(=O)N[C@@H](CO)C(=O)N[C@@H](CO)C(=O)NC(C)(C)C(=O)N[C@@H](Cc1c[nH]cn1)C(=O)N1CCC[C@H]1C(=O)N1CCC[C@H]1C(=O)N1CCC[C@H]1C(=O)N[C@@H](CO)C(N)=O` [Compound 25], the “Human GLP-1R Rel. A (Relative Activity)” value at Human GLP-1R came to 141.94%. The “Human GCG R Rel. A (Relative Activity)” value at Human GCG R worked out at 167.65%. Also, in the assay with RIN-m5F cells, the EC50 turned out to be 0.202 nM and the “Rel. A (Relative Activity) on RIN-m5F” value was 510.89%. For the same molecule, in the assay on 3T3-L1 adipocytes, a half-maximal response (EC50) required 0.918 nM and the “Rel. A (Relative Activity) on 3T3-L1 adipocyte” value is on record as 414.16%. Moreover, on Human GIP R, the “Human GIP R Rel. A (Relative Activity)” value is reported as 1392.31% and the EC50 is 0.013 nM. For the same molecule, in assay [1], the EC50 was 0.649 nM and the “Rel. A (Relative Activity) on human primary liver cells” value was found to be 599.54%.
